Experimental findings from patent US20260015350A1, “AZAQUINAZOLINE PAN-KRAS INHIBITORS” (Mirati Therapeutics, Inc., priority 2022, published 2026) are described below.

As usually defined, the inhibition is the change of the read-out against control, counted positive when it falls. For orientation: IC50 means the concentration needed to halve the response being measured.

Assay [1] deals with T1, KRas^G12A (Homo sapiens, UniProt P01116, G12A).
T1 construct: Biotinylated KRas (corresponding to amino acids 1-169, produced at Accelegan Inc.); biotin (biotinylated); purchased Accelegan Inc
T1 sequence (P01116 1-169 isoform P01116-2 G12A): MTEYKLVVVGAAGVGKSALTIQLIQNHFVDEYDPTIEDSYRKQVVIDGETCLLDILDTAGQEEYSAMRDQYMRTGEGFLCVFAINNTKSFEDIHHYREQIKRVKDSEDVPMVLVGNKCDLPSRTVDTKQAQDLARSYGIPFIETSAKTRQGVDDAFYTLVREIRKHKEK
The assay is described as follows: KRas binding assay (TR-FRET tracer displacement), KRas G12A. Particulars: single point, 10 nM compound, TR-FRET.

Assay [2] deals with T2, KRas^WT (Homo sapiens, UniProt P01116).
T2 construct: Biotinylated KRas (corresponding to amino acids 1-169, produced at Accelegan Inc.); biotin (biotinylated); purchased Accelegan Inc
T2 sequence (P01116 1-169 isoform P01116-2): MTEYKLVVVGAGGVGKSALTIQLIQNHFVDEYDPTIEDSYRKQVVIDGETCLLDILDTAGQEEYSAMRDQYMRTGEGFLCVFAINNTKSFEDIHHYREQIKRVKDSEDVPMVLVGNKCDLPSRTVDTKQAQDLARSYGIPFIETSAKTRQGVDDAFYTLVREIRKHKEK
As to the kind of experiment: KRas binding assay (TR-FRET tracer displacement), KRas WT. Particulars: single point, 10 nM compound, TR-FRET. A general note: TR-FRET usually uses a lanthanide donor and a delayed reading to cut background.

The subject of assay [3] is KRas-mediated phosphorylation of ERK in H727 cells. As to the kind of experiment: Inhibition of KRas-mediated phosphorylation of ERK (Cisbio HTRF pERK), H727 cells. It is filed as cell-based. Particulars: Homo sapiens, NCI-H727, H727 cells; HTRF pERK. A digest of the protocol: (§1)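 Min control wells contained 0.2 uM Trametinib, while test compounds ran as 10 doses (3-fold, top 10 uM; 0.8% DMSO final) on cells for 3 hrs. After 40 mins lysis at 4° C, lysates were probed with HTRF antibodies for 2 hrs at room temperature.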

Assay [4] concerns the target T3, KRas^G12D (Homo sapiens, UniProt P01116, G12D).
T3 construct: Biotinylated KRas (corresponding to amino acids 1-169, produced at Accelegan Inc.); biotin (biotinylated); purchased Accelegan Inc
The assay is described as follows: KRas binding assay (TR-FRET tracer displacement), KRas G12D.

In assay [5] the test system is KRas-mediated phosphorylation of ERK in A549 cells. The assay is described as follows: Inhibition of KRas-mediated phosphorylation of ERK (Cisbio HTRF pERK), A549 cells. It is filed as cell-based. Particulars: Homo sapiens; for inhibition at 0.1 µM: A549, 3 h, single point, 100 nM compound, 3 hrs. A digest of the protocol:
(§2)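 Signal read by HTRF (d2/Cryptate antibody pair, 2 hr room-temperature incubation on lysate). Cells: 6,000 per well, 3 hr compound exposure. Titration: 10 uM highest, 3-fold, 10 points.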

Assay [6] addresses T4, KRas^G13D (Homo sapiens, UniProt P01116, G13D).
T4 construct: Biotinylated KRas (corresponding to amino acids 1-169, produced at Accelegan Inc.); biotin (biotinylated); purchased Accelegan Inc
As to the kind of experiment: KRas binding assay (TR-FRET tracer displacement), KRas G13D. Particulars: single point, 10 nM compound, TR-FRET.

Assay [7] deals with KRas-mediated phosphorylation of ERK in MKN1 cells. The assay is described as follows: Inhibition of KRas-mediated phosphorylation of ERK (Cisbio HTRF pERK), MKN1 cells. Type of assay: cell-based. Particulars: Homo sapiens, MKN-1. A digest of the protocol: (§3)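 HTRF pERK read-out; 6,000 cells/well, RPMI_10% FBS, overnight 37° C./5% CO2; 4 h covered incubation at RT before reading.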

The target in assay [8] is T5, KRas^G12V (Homo sapiens, UniProt P01116, G12V).
T5 construct: Biotinylated KRas (corresponding to amino acids 1-169, produced at Accelegan Inc.); biotin (biotinylated); purchased Accelegan Inc
T5 sequence (P01116 1-169 isoform P01116-2 G12V): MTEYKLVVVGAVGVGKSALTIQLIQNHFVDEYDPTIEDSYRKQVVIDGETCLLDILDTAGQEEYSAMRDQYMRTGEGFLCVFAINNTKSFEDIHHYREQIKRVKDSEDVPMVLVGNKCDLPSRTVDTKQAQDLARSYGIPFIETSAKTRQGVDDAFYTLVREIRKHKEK
The assay is described as follows: KRas binding assay (TR-FRET tracer displacement), KRas G12V.

Assay [9] relates to KRas-mediated phosphorylation of ERK in H460 cells. As to the kind of experiment: Inhibition of KRas-mediated phosphorylation of ERK (Cisbio HTRF pERK), H460 cells. Type of assay: cell-based. Particulars: Homo sapiens; for inhibition at 0.1 µM: NCI-H460, 3 h, single point, 100 nM compound, 3 hrs; for IC50: NCI-H460, HTRF pERK. A digest of the protocol:
as §1

For assay [10], the system named is KRas-mediated phosphorylation of ERK in AsPC-1 cells. As to the kind of experiment: Inhibition of KRas-mediated phosphorylation of ERK (Cisbio HTRF pERK), AsPC-1 cells. It is filed as cell-based. Particulars: Homo sapiens, ASPC1, AsPC-1 cells; HTRF pERK. A digest of the protocol: as §1
Assay [11] addresses T6, KRas^G12S (Homo sapiens, UniProt P01116, G12S).
T6 construct: Biotinylated KRas (corresponding to amino acids 1-169, produced at Accelegan Inc.); biotin (biotinylated); purchased Accelegan Inc
As to the kind of experiment: KRas binding assay (TR-FRET tracer displacement), KRas G12S. Particulars: single point, 10 nM compound, TR-FRET.

The target of assay [12] is T7, KRas^G12R (Homo sapiens, UniProt P01116, G12R).
T7 construct: Biotinylated KRas (corresponding to amino acids 1-169, produced at Accelegan Inc.); biotin (biotinylated); purchased Accelegan Inc
T7 sequence (P01116 1-169 isoform P01116-2 G12R): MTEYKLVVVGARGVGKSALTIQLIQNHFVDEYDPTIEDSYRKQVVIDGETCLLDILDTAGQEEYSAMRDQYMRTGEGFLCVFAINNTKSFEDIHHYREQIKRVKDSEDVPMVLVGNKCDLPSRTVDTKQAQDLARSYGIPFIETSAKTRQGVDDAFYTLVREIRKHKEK
As to the kind of experiment: KRas binding assay (TR-FRET tracer displacement), KRas G12R.

In assay [13] the test system is KRas-mediated phosphorylation of ERK in HCT116 cells. As to the kind of experiment: Inhibition of KRas-mediated phosphorylation of ERK (Cisbio HTRF pERK), HCT116 cells. Type of assay: cell-based. Particulars: Homo sapiens; for inhibition at 0.1 µM: HCT-116, 3 h, single point, 100 nM compound, 3 hrs. A digest of the protocol: as §2
The target in assay [14] is T8, KRas^Q61H (Homo sapiens, UniProt P01116, Q61H).
T8 construct: Biotinylated KRas (corresponding to amino acids 1-169, produced at Accelegan Inc.); biotin (biotinylated); purchased Accelegan Inc
T8 sequence (P01116 1-169 isoform P01116-2 Q61H): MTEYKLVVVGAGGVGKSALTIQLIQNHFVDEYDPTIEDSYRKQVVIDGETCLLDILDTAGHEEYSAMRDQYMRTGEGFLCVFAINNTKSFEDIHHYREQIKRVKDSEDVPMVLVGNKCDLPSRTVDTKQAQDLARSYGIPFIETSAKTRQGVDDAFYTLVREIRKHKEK
The assay is described as follows: KRas binding assay (TR-FRET tracer displacement), KRas Q61H. Particulars: single point, 10 nM compound, TR-FRET.

Assay [15] has as its target T9, KRas^G12C (Homo sapiens, UniProt P01116, G12C).
T9 construct: Biotinylated KRas (corresponding to amino acids 1-169, produced at Accelegan Inc.); biotin (biotinylated); purchased Accelegan Inc
As to the kind of experiment: KRas binding assay (TR-FRET tracer displacement), KRas G12C. Particulars: single point, 10 nM compound, TR-FRET.

The test system of assay [16] is KRas-mediated phosphorylation of ERK in H358 cells. The assay is described as follows: Inhibition of KRas-mediated phosphorylation of ERK (Cisbio HTRF pERK), H358 cells. Type of assay: cell-based. Particulars: Homo sapiens; for inhibition at 0.1 µM: NCI-H358, 3 h, single point, 100 nM compound, 3 hrs. A digest of the protocol:
as §1

Assay [17] relates to KRas-mediated phosphorylation of ERK in PSN1 cells. As to the kind of experiment: Inhibition of KRas-mediated phosphorylation of ERK (Cisbio HTRF pERK), PSN1 cells. It is filed as cell-based. Particulars: Homo sapiens. A digest of the protocol:
as §3

A value given as a limit tells only on which side of the number the result lay.

T6 sequence (P01116 1-169 isoform P01116-2 G12S): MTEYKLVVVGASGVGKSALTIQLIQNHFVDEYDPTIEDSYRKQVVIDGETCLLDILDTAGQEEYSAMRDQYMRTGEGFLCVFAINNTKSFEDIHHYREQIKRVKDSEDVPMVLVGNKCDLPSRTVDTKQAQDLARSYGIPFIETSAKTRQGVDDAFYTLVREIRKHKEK
T4 sequence (P01116 1-169 isoform P01116-2 G13D): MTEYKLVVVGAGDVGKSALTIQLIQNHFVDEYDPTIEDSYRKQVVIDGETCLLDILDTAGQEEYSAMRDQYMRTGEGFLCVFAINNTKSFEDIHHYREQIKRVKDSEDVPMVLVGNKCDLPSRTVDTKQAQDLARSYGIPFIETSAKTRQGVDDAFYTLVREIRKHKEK
T9 sequence (P01116 1-169 isoform P01116-2 G12C): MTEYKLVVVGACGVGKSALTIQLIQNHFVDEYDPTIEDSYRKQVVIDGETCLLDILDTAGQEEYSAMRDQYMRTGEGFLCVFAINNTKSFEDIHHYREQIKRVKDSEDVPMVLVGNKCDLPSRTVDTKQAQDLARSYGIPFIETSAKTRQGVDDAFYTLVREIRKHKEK
T3 sequence (P01116 1-169 isoform P01116-2 G12D): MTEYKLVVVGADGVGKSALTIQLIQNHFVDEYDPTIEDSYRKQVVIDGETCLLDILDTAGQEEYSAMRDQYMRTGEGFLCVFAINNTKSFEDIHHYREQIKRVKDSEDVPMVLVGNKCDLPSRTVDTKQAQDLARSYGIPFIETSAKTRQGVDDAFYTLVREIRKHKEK

On to `CCc1c(F)ccc2cc(O)cc(-c3ncc4c(N5CC6CCC(C5)C6C#N)nc(OC[C@@]56CCCN5C[C@H](F)C6)nc4c3F)c12` (stereo partly drawn) [Example 559, 3-(7-(8-ethyl-7-fluoro-3-hydroxynaphthalen-1-yl)-8-fluoro-2-(((2R,7aS)-2-fluorohexahydro-1H-pyrrolizin-7a-yl)methoxy)pyrido[4,3-d]pyrimidin-4-yl)-3-azabicyclo[3.2.1]octane-8-carbonitrile], for which the inhibition at 0.01 µM in assay [1] turned out to be 70%; in assay [2], 73%; in [6] it was 82%; in [11] it was 82%; in assay [14], 82%; in [15], 89%. In addition, the IC50 is 20 nM in assay [3]; 15 nM in [4]; 5 nM in assay [7]; below 2 nM in assay [8]; 105 nM in assay [10]; below 2 nM in assay [12]. For the same molecule, in assay [17], the IC50 came to 9490 nM. Further, the inhibition at 0.1 µM in assay [5] was 75%; in assay [9] it was 89%; in assay [13] it was 55%; in [16], 98%.

In the case of `CCc1c(F)ccc2cc(O)cc(-c3ncc4c(N5CCCCC(C#N)C5)nc(OC[C@@]56CCCN5C[C@H](F)C6)nc4c3F)c12` (stereo partly drawn) [Example 547, 1-(7-(8-ethyl-7-fluoro-3-hydroxynaphthalen-1-yl)-8-fluoro-2-(((2R,7aS)-2-fluorohexahydro-1H-pyrrolizin-7a-yl)methoxy)pyrido[4,3-d]pyrimidin-4-yl)azepane-3-carbonitrile], the inhibition at 0.01 µM in assay [1] worked out at 49%; in [2], 68%; in [6] it was 76%; in assay [11] it was 58%; in assay [14], 70%; in assay [15], 56%. Moreover, the concentration for half-maximal inhibition (IC50) in [3] worked out at 263 nM; in assay [4] it was 4 nM; in [7], 16 nM; in assay [8], 7 nM; in assay [9] it was 51 nM; in assay [10], 49 nM. The IC50 in assay [12] was found to be 10 nM; in assay [17] it was 7520 nM. Also, the inhibition at 0.1 µM came out at 33% in assay [5] and 20% in [16].

With `CCc1c(F)ccc2cc(O)cc(-c3ncc4c(N5CCC[C@@]6(CCO6)C5)nc(OCC5(CN(C)C)CC5)nc4c3F)c12` [Example 700, (R)-4-(2-((1-((dimethylamino)methyl)cyclopropyl)methoxy)-8-fluoro-4-(1-oxa-6-azaspiro[3.5]nonan-6-yl)pyrido[4,3-d]pyrimidin-7-yl)-5-ethyl-6-fluoronaphthalen-2-ol], the inhibition at 0.01 µM in assay [1] came to 83%; in assay [2], 91%; in assay [6] it was 96%; in [11], 93%; in assay [14] it was 96%; in [15], 97%. Besides, the IC50 stood at 948 nM in assay [3]; 468 nM in assay [5] (HTRF pERK); 4 nM in assay [7]; 348 nM in assay [9]; 412 nM in [10]; 784 nM in assay [13] (HCT-116, HTRF pERK). The IC50 stood at 209 nM in assay [16] (NCI-H358, HTRF pERK) and 1320 nM in [17]. Further, the inhibition at 0.1 µM in [5] came to 83%; in [9] it was 96%; in [13], 86%; in assay [16], 103%.
